Measured values from paper PMC7234998, “Quantification of Colistin in Plasma by Liquid Chromatography-Tandem Mass Spectrometry: Application to a Pharmacokinetic Study” (Scientific Reports, 2020).
Positions of bridges follow the written chain, without caps; N, C: chain ends. Non-standard residues stand in square brackets, D forms with d. Residues, ends and D or L forms follow the SMILES beside them. *: point of attachment. X1 = CC[C@H](C)CCCCC(=O)*; Dab = NCC[C@H](N)C(=O)O

How the values were obtained:
[1] = Autosampler stability of processed colistin rat plasma samples at 4 °C; conditions: 4 °C for 24 hours, n = 4; for Found concentration in autosampler stability study: LC-MS/MS, mean ± S.D., SD
Description: (§1) Colistin sulfate was prepared by dissolving 5.5 mg of the powder in 5 ml water to make a stock solution of 1 mg/ml of colistin. PMB sulfate solution of 1 mg/ml was also prepared by dissolving 5.8 mg of PMB sulfate powder in 5 ml water. Both solutions were stored at −70 °C. Calibration standards and quality controls were prepared by spiking different amounts of colistin sulfate stock solution in plasma. Aliquots of colistin sulfate were further diluted to provide standard concentrations of 0.5, 1, 2, 5, 10, 15, and 20 μg/mL (equivalent to: 78, 156, 312, 780, 1560, 2340 and 3120 ng/ml of colistin A and 353, 706, 1412, 3350, 7060, 10590 and 14120 ng/ml of colistin B) whereas, the concentrations of 1.5, 3.5, 7.5 and 17.5 μg/mL (which contained 234, 546, 1170 and 2730 ng/ml of colistin A and 1059, 2471, 5295 and 12355 ng/ml of colistin B) were considered as quality controls. The calibration standards and quality controls were aliquoted (150 μL) into 0.5 ml Eppendorf tubes and stored at −70 °C pending analysis.
(§2) To 100 μl rat plasma sample, 5 μl of 500 μg/ml IS was added and followed by addition of 400 μl of 50:50 (v/v) methanol-TCA (10%). The samples were vortex-mixed for 1 min, rota-mixed for 10 min at 40 rpm and then centrifuged at 12,000 rpm for 10 min. Following centrifugation, 400 µl of the supernatant was collected and re-extracted with solid phase extraction (SPE) using SPE (Oasis HLB 1 cc, 30 mg) cartridges. First, the cartridges were conditioned with 500 μl of methanol then 500 μl of water. After that, 400 μl of the supernatant was transferred and then washed with 500 μl of water. The tubes were changed and then the samples were eluted with 150 μl of methanol: water: formic acid (80:19:1%, v/v/v) solution. The elution step was repeated twice, and then 250 μl of the solution was transferred to the low volume inserts and 20 μl of this solution was injected into the LC-MS system.
(§3) Various types of stability tests including freeze-thaw stability and long-term stability were assessed. The freeze-thaw stability test was performed by removing the four QC samples out of the storage temperature (−70 °C) and keeping them at room temperature (25 °C) until thawing and then aliquots of the samples were analyzed. After that, the samples were again returned back for freezing in the same storage conditions for 12 to 24 h. The freeze-thaw cycles were repeated five times and 4 replicates of the analytes were assayed. In addition, a long-term stability test was performed to ensure that the stability of the samples for a time that exceeds the interval between the first sample collection and the last sample analysis. Four aliquots of low, medium and high concentrations (QC) were kept for 20 days in the same temperature used to store samples regularly at the lab (−70 °C) then analyzed and compared to the nominal concentration of freshly prepared QC samples. Moreover, the stability in the autosampler (4 °C) was assessed by keeping the processed samples under this condition and assayed periodically at different times for up to 24 hours. In addition, benchtop stability test was performed by keeping the samples at room temperature (25 °C) for six hours and analyzing them during this time. The mean value results of stability tests were calculated and compared to the nominal concentrations.

[2] = Pharmacokinetic study of colistin in rats after IV colistin sulfate, plasma LC-MS/MS, non-compartmental analysis; conditions: male, Sprague Dawley, rat, 15 mg/kg
Description: as §2
Male Sprague Dawley® (MSD) rats (21 weeks ± 3 days of age) with a body weight of 450–550 g [supplied by the Animal Resource Center (ARC), Health Sciences Center (HSC), Kuwait University] were used to estimate the pharmacokinetic profile of colistin. The animals (n = 8) were housed in 12 h/12 h light/dark cycle. […] All the animals were subjected to left jugular vein cannulation, IV drug administration, and subsequent blood sampling. All surgical procedures were carried out under strict aseptic conditions. In addition, all surgical instruments and materials were autoclaved, all solutions were sterile and the surgical procedure was performed with the aid of surgical microscope (Leica wild M690). Animal body temperatures were maintained around 37.6 °C (rectal) by placing the animals on an electronic heating pad throughout the surgical procedure as well as the post-surgical recovery period. About 350 µl of rat blood sample was collected from each animal. From this sample, 50 µl of blood sample was transferred to a capillary tube, sealed with the sealant clay at one end and centrifuged to calculate the Packed Cell Volume (PCV); i.e., Hematocrit. The remaining rat blood sample (300 µl) was centrifuged at 9000 X g for 10 min and aliquots of 100 µl of plasma sample was collected and stored at −70 °C pending analysis.
Colistin was quantified in the biological samples by the present LC-MS/MS method and then the pharmacokinetic parameters (t1/2, CL, Vd, AUC) were estimated by non-compartmental method employing Kinetica® software, version 5.1 (Thermo Fisher Scientific, Waltham, USA).

[3] = Long-term stability of colistin in rat plasma QC samples at −70 °C; conditions: 20 days; for Found concentration after long-term storage: LC-MS/MS, mean ± S.D., n = 5, SD; for Bias% from nominal concentration after long-term storage: n = 5
Description: as §1, §2, §3

[4] = Freeze-thaw stability of colistin in rat plasma QC samples; conditions: −70 °C to 25 °C after 24 hours, five cycles, n = 4; for Found concentration after freeze-thaw: LC-MS/MS, mean ± S.D., SD
Description: as §1, §2, §3

[5] = rats, cited from earlier work
Source text: Following the validation of the present analytical method, the method was applied to estimate the pharmacokinetic profile of colistin in experimental rats. Choosing the animal species to perform the pharmacokinetic study was based on the similarity of colistin pharmacokinetic profile between animal species and humans. […] The species that has the closest pharmacokinetic profile to humans are rats[43]–[45]. […] This is because of a distribution phase that occurs before the decline in the colistin concentration. This finding is in agreement with previous reports[43],[44],[49]. In the present study, we observed that colistin concentration declined rapidly over 180–240 min which is consistent with earlier findings[45],[49]. […] In the present study, the Vd of colistin was 2.45 ± 1.30 L/kg in ...

[6] = Benchtop stability of colistin in rat plasma samples at room temperature; conditions: 25 °C for 6 hours, n = 4; for Found concentration in benchtop stability study: LC-MS/MS, mean ± S.D., SD
Description: as §1, §2, §3

[7] = in vivo, cited from earlier work
Description: However, colistin sulphate has been reported to be well absorbed after an oral administration in infants. […] The standards and quality control samples concentrations were selected based on the therapeutic range of colistin. The expected colistin serum levels according to the antimicrobial reference laboratory assay service are 5–15 mg/L and 2–4 mg/L for the peak and tough concentrations, respectively. […] Choosing the animal species to perform the pharmacokinetic study was based on the similarity of colistin pharmacokinetic profile between animal species and humans. […] The species that has the closest pharmacokinetic profile to humans are rats[43]–[45].

[8] = processed rat plasma QC 1.5 μg/mL colistin (nominal 234 ng/ml colistin A, 1059 ng/ml colistin B)
[9] = processed rat plasma QC 3.5 μg/mL colistin (nominal 546 ng/ml colistin A, 2471 ng/ml colistin B)
[10] = processed rat plasma QC 7.5 μg/mL colistin (nominal 1170 ng/ml colistin A, 5295 ng/ml colistin B)
[11] = processed rat plasma QC 17.5 μg/mL colistin (nominal 2730 ng/ml colistin A, 12355 ng/ml colistin B)
[12] = rat plasma QC 1.5 μg/mL colistin (nominal 234 ng/ml colistin A, 1059 ng/ml colistin B)
[13] = rat plasma QC 3.5 μg/mL colistin (nominal 546 ng/ml colistin A, 2471 ng/ml colistin B)
[14] = rat plasma QC 7.5 μg/mL colistin (nominal 1170 ng/ml colistin A, 5295 ng/ml colistin B)
[15] = rat plasma QC 17.5 μg/mL colistin (nominal 2730 ng/ml colistin A, 12355 ng/ml colistin B)

## CC[C@H](C)CCCCC(=O)N[C@@H](CCN)C(=O)N[C@H](C(=O)N[C@@H](CCN)C(=O)N[C@H]1CCNC(=O)[C@H]([C@@H](C)O)NC(=O)[C@H](CCN)NC(=O)[C@H](CCN)NC(=O)[C@H](CC(C)C)NC(=O)[C@@H](CC(C)C)NC(=O)[C@H](CCN)NC1=O)[C@@H](C)O [Colistin A, colistin A] (X1-[Dab]T[Dab][Dab][Dab][dL]L[Dab][Dab]T; lactam 4-C)
[1]; [8]
  Found concentration in autosampler stability study: 231.18 ± 6.22 ng/mL
  Bias% from nominal concentration in autosampler stability study: −1.21%
[1]; [9]
  Found concentration in autosampler stability study: 516.95 ± 53.28 ng/mL
  Bias% from nominal concentration in autosampler stability study: −5.32%
[1]; [10]
  Found concentration in autosampler stability study: 1034.9 ± 38.64 ng/mL
  Bias% from nominal concentration in autosampler stability study: −11.55%
[1]; [11]
  Found concentration in autosampler stability study: 2917.93 ± 341.07 ng/mL
  Bias% from nominal concentration in autosampler stability study: 6.88%
[2]
  level at 0.5 h: 4110 ng/mL
[3]; [12]
  Found concentration after long-term storage: 237.24 ± 5.64 ng/mL
  Bias% from nominal concentration after long-term storage: 1.39%
[3]; [13]
  Found concentration after long-term storage: 520.76 ± 19.46 ng/mL
  Bias% from nominal concentration after long-term storage: −4.62%
[3]; [14]
  Found concentration after long-term storage: 1134.44 ± 26.11 ng/mL
  Bias% from nominal concentration after long-term storage: −3.04%
[3]; [15]
  Found concentration after long-term storage: 2719 ± 50.20 ng/mL
  Bias% from nominal concentration after long-term storage: −0.40%
[4]; [12]
  Found concentration after freeze-thaw: 265.4 ± 35.10 ng/mL
  Bias% from nominal concentration after freeze-thaw: 13.42%
[4]; [13]
  Found concentration after freeze-thaw: 615.27 ± 30.29 ng/mL
  Bias% from nominal concentration after freeze-thaw: 12.69%
[4]; [14]
  Found concentration after freeze-thaw: 1208.93 ± 77.51 ng/mL
  Bias% from nominal concentration after freeze-thaw: 3.33%
[4]; [15]
  Found concentration after freeze-thaw: 2551.83 ± 177.97 ng/mL
  Bias% from nominal concentration after freeze-thaw: −6.53%
[5]; Sivanesan and co-workers, ref 45 (sentence ends with 41)
  CL of the individual components: 2.75 ± 0.54 mL/min/kg
[5]
  t1/2 of the major components: 1.37 ± 0.515 h
[6]; [12]
  Found concentration in benchtop stability study: 120.275 ± 50.32 ng/mL
  Bias% from nominal concentration in benchtop stability study: −48.6%
[6]; [13]
  Found concentration in benchtop stability study: 592.47 ± 488.56 ng/mL
  Bias% from nominal concentration in benchtop stability study: 8.51%
[6]; [14]
  Found concentration in benchtop stability study: 1047.6 ± 202.94 ng/mL
  Bias% from nominal concentration in benchtop stability study: −10.46%
[6]; [15]
  Found concentration in benchtop stability study: 5045 ± 3076.10 ng/mL
  Bias% from nominal concentration in benchtop stability study: 84.8%

## colistimethate sodium [CMS]
[7]; human
  Vd at steady state: 0.34 ± 0.10 L/kg
  t1/2: 2.07 ± 0.867 h
[7]
  absorption after intramuscular injection: rapidly absorbed
  absorption through burns, inflamed skin or mucosal membranes: not absorbed
  absorption through the GIT: poorly absorbed

## colistin sulphate
[7]; po
  absorption after oral administration in infants: well absorbed
  absorption from the gastrointestinal tract (GIT): poorly absorbed
[7]
  maximum serum concentration: 0.13 mg/L
  time of maximum serum concentration: 1.5 h
